Assay results taken from US20260201008A1, “SECRETIN-DERIVED GLP1R SELECTIVE AGONISTS” (GUBRA A/S, priority 2023, published 2026).
pEC50: −log10 of the molar value. Read-outs that look alike come from different tables or passages of the source. Numbered stars: 1 amine (or outer) side, 2 acyl side, 3 side chain; on linkers, the order of the positions; unused ones are H or OH. Square brackets hold non-standard residues; d marks the D form. Side chains are listed from the residue outwards. Peptide text beside a SMILES is read from it. * marks the point of attachment. C20 diacid = O=C(O)CCCCCCCCCCCCCCCCCCC(=O)*; γGlu = O=C(O)[C@H](CCC(=O)[*:2])N[*:1]; AEEA = NCCOCCOCC(=O)O; Aib = CC(C)(N)C(=O)O

Experiments:
SCTR = SCTR (Homo sapiens, UniProt P47872); experiment: hSCTR potency, cAMP accumulation in CHO-K1 cells stably overexpressing hSCTR; type: cell-based; parameters: alternatively Euroscreen ES-712-AF; FAST-0161L; host or cells: CHO-K1; details: for EC50: cAMP accumulation, CHO-K1 cells overexpressing hSCTR, read-out: pEC50 hSCTR (converted)
SCTR, sequence (P47872 23-440): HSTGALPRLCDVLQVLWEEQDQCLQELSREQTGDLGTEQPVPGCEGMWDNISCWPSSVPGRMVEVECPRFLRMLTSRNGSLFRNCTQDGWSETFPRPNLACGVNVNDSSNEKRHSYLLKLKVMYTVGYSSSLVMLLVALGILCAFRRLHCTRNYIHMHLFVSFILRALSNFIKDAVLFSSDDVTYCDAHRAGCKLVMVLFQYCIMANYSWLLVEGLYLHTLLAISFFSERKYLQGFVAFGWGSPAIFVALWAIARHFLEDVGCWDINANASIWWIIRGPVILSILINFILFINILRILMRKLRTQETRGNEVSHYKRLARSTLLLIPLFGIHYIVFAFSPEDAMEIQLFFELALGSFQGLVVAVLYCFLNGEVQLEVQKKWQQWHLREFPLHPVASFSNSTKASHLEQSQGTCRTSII
Summary of the method: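 Division-arrested CHO-K1 cells stably expressing hSCTR were plated in DPBS with 0.05% casein and 0.5 mM IBMX, then stimulated with test peptide for 30 min at room temperature. cAMP was read by HTRF after one hour. EC50 came from variable-slope sigmoidal nonlinear regression.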

[1] = Turbidity of crude library peptides (absorbance at 600 nm); type: physicochemical; details: Physical stability of peptides
Summary of the method: (§1)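 Values reflect mean ThT emission (ex 450, em 480 nm) over 72 h at 40° C, read every 10 min after 5 min shaking at 700 rpm, plus a single initial absorbance at 600 nm for turbidity. Peptides were at 267 μM, pH 4.0 acetate or pH 7.0 phosphate (50 mM), with 4 μM ThT.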

[2] = Fibril formation of crude library peptides (Thioflavin T); type: physicochemical; parameters: key: average ThT fluorescence emission at 480 nm (ex 450 nm), raw units; details: Physical stability of peptides
Summary of the method: as §1

GLP1R = GLP1R (Homo sapiens, UniProt P43220); experiment: hGLP1R potency, cAMP accumulation in CHO-K1 cells stably overexpressing hGLP1R; type: cell-based; parameters: host or cells: CHO-K1; details: for Selectivity: SCTR EC50/GLP1R EC50 ratio; for EC50: cAMP accumulation, CHO-K1 cells overexpressing hGLP1R, read-out: pEC50 hGLPR1 (converted)
GLP1R, sequence (P43220 24-463): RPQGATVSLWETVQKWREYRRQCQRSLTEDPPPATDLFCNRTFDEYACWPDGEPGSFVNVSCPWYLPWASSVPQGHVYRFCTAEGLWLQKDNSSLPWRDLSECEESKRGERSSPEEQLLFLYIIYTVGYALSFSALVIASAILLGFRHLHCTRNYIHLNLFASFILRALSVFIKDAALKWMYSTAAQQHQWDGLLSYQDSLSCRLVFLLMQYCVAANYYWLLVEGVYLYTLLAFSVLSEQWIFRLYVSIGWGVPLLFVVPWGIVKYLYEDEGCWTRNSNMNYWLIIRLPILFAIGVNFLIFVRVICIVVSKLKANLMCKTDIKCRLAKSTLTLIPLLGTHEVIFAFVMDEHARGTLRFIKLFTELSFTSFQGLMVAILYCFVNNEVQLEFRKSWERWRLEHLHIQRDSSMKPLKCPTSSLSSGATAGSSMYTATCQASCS
Summary of the method: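 Cells were plated in DPBS with 0.05% casein and 0.5 mM IBMX, then stimulated for 30 min at room temperature with test compound. cAMP was read by TR-FRET after one hour. EC50 came from variable-slope sigmoid nonlinear regression; purified peptides ran as 11-point 3-fold series, n=2.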

SMILES	Turbidity (pH 7) [1]	Fibril formation [2]	Selectivity (GLP1R)	EC50 (SCTR) [nM]	EC50 (GLP1R) [nM]	pEC50 (SCTR)	pEC50 (GLP1R)
CC(C)C[C@H](NC(=O)[C@H](Cc1ccccc1)NC(=O)[C@H](CCCNC(=N)N)NC(=O)[C@H](CCC(N)=O)NC(=O)[C@H](C)NC(=O)[C@H](C)NC(=O)[C@H](C)NC(=O)[C@@H](NC(=O)[C@H](CCC(=O)O)NC(=O)[C@H](CCCCNC(=O)COCCOCCNC(=O)COCCOCCNC(=O)CC[C@H](NC(=O)CCCCCCCCCCCCCCCCCCC(=O)O)C(=O)O)NC(=O)[C@H](CC(C)C)NC(=O)[C@@H](NC(=O)[C@H](CO)NC(=O)[C@@H](NC(=O)[C@H](CC(=O)O)NC(=O)[C@H](CO)NC(=O)[C@@H](NC(=O)[C@H](Cc1ccccc1)NC(=O)[C@@H](NC(=O)CNC(=O)[C@H](CCC(=O)O)NC(=O)C(C)(C)NC(=O)[C@@H](N)Cc1c[nH]cn1)[C@@H](C)O)[C@@H](C)O)C(C)C)C(C)C)[C@@H](C)O)C(=O)N[C@@H](CCC(=O)O)C(=O)N[C@@H](Cc1c[nH]cn1)C(=O)N[C@@H](CC(C)C)C(=O)N[C@H](C(N)=O)C(C)C [compound 62] (H-H[Aib]EGTFTSDVSVLK([AEEA-AEEA-γGlu-C20 diacid])ETAAAQRFLEHLV-NH2)	0.08	21979	18608	–	–	5.70	10.00
CC(C)C[C@H](NC(=O)[C@H](Cc1ccccc1)NC(=O)[C@H](CCCNC(=N)N)NC(=O)[C@H](CCC(N)=O)NC(=O)C(C)(C)NC(=O)[C@H](C)NC(=O)[C@H](C)NC(=O)C(C)(C)NC(=O)[C@H](CCC(=O)O)NC(=O)[C@H](CCCCNC(=O)COCCOCCNC(=O)COCCOCCNC(=O)CC[C@H](NC(=O)CCCCCCCCCCCCCCCCCCC(=O)O)C(=O)O)NC(=O)[C@H](CC(C)C)NC(=O)[C@H](CCCNC(=N)N)NC(=O)[C@H](CO)NC(=O)[C@@H](NC(=O)[C@H](CC(=O)O)NC(=O)[C@H](CO)NC(=O)[C@@H](NC(=O)[C@H](Cc1ccccc1)NC(=O)[C@@H](NC(=O)CNC(=O)[C@H](CCC(=O)O)NC(=O)C(C)(C)NC(=O)[C@@H](N)Cc1c[nH]cn1)[C@@H](C)O)[C@@H](C)O)C(C)C)C(=O)N[C@@H](CCC(=O)O)C(=O)N[C@@H](Cc1c[nH]cn1)C(=O)N[C@@H](CC(C)C)C(=O)N[C@H](C(N)=O)C(C)C [compound 64] (H-H[Aib]EGTFTSDVSRLK([AEEA-AEEA-γGlu-C20 diacid])E[Aib]AA[Aib]QRFLEHLV-NH2)	0.09	14614	4808	316	0.0631	–	–

The next lines start with results.

Turbidity (pH 7) [1]	Fibril formation [2]	Selectivity (GLP1R)	EC50 (SCTR) [nM]	EC50 (GLP1R) [nM]	SMILES	pEC50 (SCTR)	pEC50 (GLP1R)
0.09	9044	201002	10000	0.0501	CC(C)C[C@H](NC(=O)[C@H](Cc1ccccc1)NC(=O)[C@H](CCCNC(=N)N)NC(=O)[C@H](CCC(N)=O)NC(=O)[C@H](C)NC(=O)[C@H](C)NC(=O)[C@H](C)NC(=O)[C@H](CCC(=O)O)NC(=O)[C@H](CCC(=O)O)NC(=O)[C@H](CCCCNC(=O)COCCOCCNC(=O)COCCOCCNC(=O)CC[C@H](NC(=O)CCCCCCCCCCCCCCCCCCC(=O)O)C(=O)O)NC(=O)[C@H](CC(C)C)NC(=O)[C@H](Cc1ccccc1)NC(=O)[C@H](CO)NC(=O)[C@@H](NC(=O)[C@H](CC(=O)O)NC(=O)[C@H](CO)NC(=O)[C@@H](NC(=O)[C@H](Cc1ccccc1)NC(=O)[C@@H](NC(=O)CNC(=O)[C@H](CCC(=O)O)NC(=O)C(C)(C)NC(=O)[C@@H](N)Cc1c[nH]cn1)[C@@H](C)O)[C@@H](C)O)C(C)C)C(=O)N[C@@H](CCC(=O)O)C(=O)N[C@@H](Cc1c[nH]cn1)C(=O)N[C@@H](CC(C)C)C(=O)N[C@H](C(N)=O)C(C)C [compound 63] (H-H[Aib]EGTFTSDVSFLK([AEEA-AEEA-γGlu-C20 diacid])EEAAAQRFLEHLV-NH2)	–	–
0.09	9674	6482	25.1	0.00316	CC(C)C[C@H](NC(=O)[C@H](Cc1ccccc1)NC(=O)[C@H](CCCNC(=N)N)NC(=O)[C@H](CCC(N)=O)NC(=O)[C@@H](NC(=O)[C@H](C)NC(=O)[C@H](C)NC(=O)[C@H](CCC(=O)O)NC(=O)[C@H](CCC(=O)O)NC(=O)[C@H](CCCCNC(=O)COCCOCCNC(=O)COCCOCCNC(=O)CC[C@H](NC(=O)CCCCCCCCCCCCCCCCCCC(=O)O)C(=O)O)NC(=O)[C@H](CC(C)C)NC(=O)[C@H](CCCNC(=N)N)NC(=O)[C@H](CO)NC(=O)[C@@H](NC(=O)[C@H](CC(=O)O)NC(=O)[C@H](CO)NC(=O)[C@@H](NC(=O)[C@H](Cc1ccccc1)NC(=O)[C@@H](NC(=O)CNC(=O)[C@H](CCC(=O)O)NC(=O)C(C)(C)NC(=O)[C@@H](N)Cc1c[nH]cn1)[C@@H](C)O)[C@@H](C)O)C(C)C)[C@@H](C)O)C(=O)N[C@@H](CCC(=O)O)C(=O)N[C@@H](Cc1c[nH]cn1)C(=O)N[C@@H](CC(C)C)C(=O)N[C@H](C(N)=O)C(C)C [compound 65] (H-H[Aib]EGTFTSDVSRLK([AEEA-AEEA-γGlu-C20 diacid])EEAATQRFLEHLV-NH2)	–	–
0.08	201306	81752	3160	0.0398	CC(C)C[C@H](NC(=O)[C@H](Cc1ccccc1)NC(=O)[C@H](CCCNC(=N)N)NC(=O)[C@H](CCC(N)=O)NC(=O)[C@H](CO)NC(=O)[C@H](C)NC(=O)[C@H](C)NC(=O)[C@H](Cc1ccccc1)NC(=O)[C@H](CCC(=O)O)NC(=O)[C@H](CCCCNC(=O)COCCOCCNC(=O)COCCOCCNC(=O)CC[C@H](NC(=O)CCCCCCCCCCCCCCCCCCC(=O)O)C(=O)O)NC(=O)[C@H](CC(C)C)NC(=O)[C@H](Cc1ccc(O)cc1)NC(=O)[C@H](CO)NC(=O)[C@@H](NC(=O)[C@H](CC(=O)O)NC(=O)[C@H](CO)NC(=O)[C@@H](NC(=O)[C@H](Cc1ccccc1)NC(=O)[C@@H](NC(=O)CNC(=O)[C@H](CCC(=O)O)NC(=O)C(C)(C)NC(=O)[C@@H](N)Cc1c[nH]cn1)[C@@H](C)O)[C@@H](C)O)C(C)C)C(=O)N[C@@H](CCC(=O)O)C(=O)N[C@@H](Cc1c[nH]cn1)C(=O)N[C@@H](CC(C)C)C(=O)N[C@H](C(N)=O)C(C)C [compound 66] (H-H[Aib]EGTFTSDVSYLK([AEEA-AEEA-γGlu-C20 diacid])EFAASQRFLEHLV-NH2)	–	–
0.08	5041	7155	398	0.0501	CC(C)C[C@H](NC(=O)[C@H](CCC(=O)O)NC(=O)[C@H](CCCCNC(=O)COCCOCCNC(=O)COCCOCCNC(=O)CC[C@H](NC(=O)CCCCCCCCCCCCCCCCCCC(=O)O)C(=O)O)NC(=O)[C@H](CC(C)C)NC(=O)[C@@H](NC(=O)[C@H](CO)NC(=O)[C@@H](NC(=O)[C@H](CC(=O)O)NC(=O)[C@H](CO)NC(=O)[C@@H](NC(=O)[C@H](Cc1ccccc1)NC(=O)[C@@H](NC(=O)CNC(=O)[C@H](CCC(=O)O)NC(=O)C(C)(C)NC(=O)[C@@H](N)Cc1c[nH]cn1)[C@@H](C)O)[C@@H](C)O)C(C)C)[C@@H](C)O)C(=O)N[C@@H](C)C(=O)N[C@@H](C)C(=O)N[C@H](C(=O)N[C@@H](CCC(N)=O)C(=O)N[C@@H](CCCNC(=N)N)C(=O)N[C@@H](Cc1ccccc1)C(=O)N[C@@H](CC(C)C)C(=O)N[C@@H](CCC(=O)O)C(=O)N[C@@H](Cc1c[nH]cn1)C(=O)N[C@@H](CC(C)C)C(=O)N[C@H](C(N)=O)C(C)C)[C@@H](C)O [compound 67] (H-H[Aib]EGTFTSDVSTLK([AEEA-AEEA-γGlu-C20 diacid])ELAATQRFLEHLV-NH2)	–	–
